Laboratory results taken from patent publication US20250277029A1, “CANNABINOID TYPE 1 RECEPTOR BINDING PROTEINS AND USES THEREOF” (AMGEN INC., priority 2022, published 2025).

System: JAX WT DIO
Assay: Rimonabant 3 mg/kg QD in JAX WT DIO mice (12 weeks HFD): body weight, fat mass, liver weight
Format: in vivo, mouse
Conditions: JAX WT DIO (12 weeks HFD), 3 mg/kg (6.5 μmol/kg, QD)

For `Cc1c(C(=O)NN2CCCCC2)nn(-c2ccc(Cl)cc2Cl)c1-c1ccc(Cl)cc1` [Rimonabant, rimonabant], the “Fat Mass % Change” value (Day 15) was −23%, the “Liver Weight % Change (Day)” value (Day 17) was −7% and the “BW % Change” value (day 17) was −12.9%.
